This is an account of results in PubChem BioAssay AID504322 (Emory University Molecular Libraries Screening Center, 2011).

Structures are written as SMILES. The source made the active and inactive calls. The rule behind the calls is not given here.

In this test the test system is CHOP reporter cell assay, percent of control. The experiment in a line: CHOP reporter inhibitor potency, dose response, cell-based (AID 504322).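 Note: CHO cells carrying a CHOP reporter stimulated with tunicamycin to induce ER stress; potency is for inhibition of the stress-induced reporter signal.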
As for `Fc1ccc(-n2nnnc2-c2cnc(-c3cccs3)nc2C(F)(F)F)cc1`, the IC50 was 6.67 µM (inactive).

Consider `COc1ccc(C(=O)c2c(C(F)(F)F)oc3c2C(=O)c2ccccc2C3=O)cc1`, for which the IC50 was 9.46 µM (inactive).

Consider `CC(C)c1ccc(O)c(NC(=S)NC(=O)CCc2ccccc2)c1`, for which the IC50 is 2.97 µM (inactive). To `O=C(Nc1ccccc1)C1=C(c2ccccc2)S(=O)(=O)CCS1(=O)=O` belongs 9.67 µM (inactive); to `Cc1ccc(CNCc2cc3c(C(C)(C)C)nn(-c4ccccc4)c3[nH]c2=O)cc1`, 7.24 µM (inactive). In the case of `COc1cc(/C=C/c2nc(N)nc(-c3ccccc3O)n2)cc(OC)c1OC`, the IC50 was > 10 µM (inactive). The figure for `CCc1ccc2c(c1)C(c1ccc([N+](=O)[O-])cc1)=NNC(c1ccc(C)cc1)=N2` is > 10 µM (inactive); for `CC1CN(S(=O)(=O)c2ccc(C(=O)Nc3nc(-c4cc5ccccc5o4)cs3)cc2)CC(C)O1` (stereo unspecified) it is 9.56 µM (inactive).

Regarding `O=C(NC(Nc1nc2ccc([N+](=O)[O-])cc2s1)(C(F)(F)F)C(F)(F)F)c1ccccc1Cl`, the IC50 is 0.87 µM. To `CCCCCCSc1nsc(NC(=O)CCC)n1` belongs 9.9 µM (inactive); to `Cc1ccc(NC(=O)c2ccc(Nc3c([N+](=O)[O-])cc([N+](=O)[O-])cc3[N+](=O)[O-])cc2)cc1`, 1.81 µM; to `COC(=O)c1ccc2c(c1)C(C)(C)C(/C=C/c1ccc(O)cc1)=[N+]2C`, > 10 µM (inactive). To `Fc1c(F)c(C(F)(F)F)c(F)c(F)c1N/N=C\c1cccs1` belongs 4.78 µM.

In the case of `CCCc1cc(=O)[nH]c(Nc2ccc(N3CCCCC3)cc2)n1`, the IC50 was 7.76 µM (inactive).

Turning to `Cc1ccc(NN2C(=O)C=C(c3ccc(Cl)cc3)C2=O)cc1`, the concentration for half-maximal inhibition (IC50) was 2.09 µM.

For the compound `CC(C)CCN(C(=O)Cc1ccc(Cl)c(Cl)c1)c1c(N)n(Cc2ccccc2)c(=O)[nH]c1=O`, the IC50 was 5.74 µM (inactive). The figure for `CCc1ccc(OCC(=O)NC(NC(=S)Nc2ccccc2)C(Cl)(Cl)Cl)cc1` (stereo unspecified) is 8.12 µM (inactive); for `CCOC(=O)/C=C/S(=O)(=O)c1ccc(NC(C)=O)cc1` it is 4.78 µM; for `O=C(Nc1ccc(F)cc1)Nc1ccc(N2CCCC2)c(S(=O)(=O)Nc2ccccc2Cl)c1` it is 8.31 µM (inactive). The figure for `CNC(=O)c1nnsc1S(=O)(=O)c1ccc(Cl)cc1` is 4.03 µM. To `C=CCOC(=O)C1=C(C)NC(SCC(=O)Nc2nccs2)=C(C#N)C1c1ccc(Cl)cc1` (stereo unspecified) belongs 9.67 µM (inactive).

On to `Cc1cc2c(cc1C)CSC(c1ccccc1O)SC2`, for which the IC50 was > 10 µM (inactive).

`O=C(COCC(=O)Nc1cccc(C(F)(F)F)c1)Nc1cccc(C(F)(F)F)c1`: the IC50 is 5.44 µM (inactive). The figure for `Cc1cc(/C=N/Nc2nc(N)ncc2[N+](=O)[O-])c(C)n1-c1cccc(C(F)(F)F)c1` is 9.14 µM (inactive); for `COc1cccc(N2CCN(c3ncnc4c3[nH]c3ccccc34)CC2C)c1` (stereo unspecified) it is 4.13 µM; for `COc1cc([C@@H]2c3cc4c(cc3[C@@H](O)[C@@H](CO)[C@@H]2CO)OCO4)cc(OC)c1O[Si](C)(C)C(C)(C)C` it is 6.02 µM (inactive). For `CCCCCCCCCCCCCCCCn1cc[n+](C)c1`, the IC50 was 0.86 µM (inactive). Take `CCOc1cc(S(=O)(=O)Nc2ccccc2CC)ccc1Cl`: the IC50 is 7 µM (inactive).

For `O=C1C(Cl)=C(N2CCCCC2)C(=O)C(Cl)=C1c1cnc(N2CCCCC2)s1`, the IC50 is 9.7 µM (inactive). With `CC(C)c1ccc(-c2cc(C(=O)N3N=C(C(F)F)CC3(O)C(F)F)c3ccccc3n2)cc1` (stereo unspecified), the IC50 was 8.38 µM (inactive).

Consider `CCOC(=O)N=Nc1c2ccccc2c2nc3no[nH]c3nc12`, for which the IC50 is 4.21 µM. On to `CC1CCN(c2nc3ccc(C(=O)O)cc3s2)CC1`, for which the half-maximal inhibitory concentration (IC50) was 0.71 µM.

`Cc1nc(SCC(=O)Nc2cc(C)on2)c2c3c(sc2n1)CCCC3`: the IC50 is > 10 µM (inactive). On to `O=C(Oc1ccc(O)cc1)C12CC3CC(CC(C3)C1)C2`, for which the IC50 was > 10 µM (inactive). The figure for `Cc1ccc(NC(=O)c2ccc(C#CC3(O)CCCCC3)cc2)cc1C` is > 10 µM (inactive); for `CC(C)(C)c1ccc(C(=O)Nc2ccc(CC(=O)O)cc2)o1` it is less than 0.16 µM. As for `O=[N+]([O-])c1ccc(COc2ccc(-c3[nH]ncc3-c3ccccc3)c(O)c2)cc1`, the IC50 was 9.61 µM (inactive). The figure for `CCCCCn1c(SCCC(C)C)nc2c1c(=O)[nH]c(=O)n2C` is 6.85 µM (inactive). The figure for `OC(CNCCc1ccc(C(F)(F)F)cc1)COc1ccc2ccccc2c1` (stereo unspecified) is 9.41 µM (inactive); for `O=[N+]([O-])c1c(NCCCO)cc(Sc2nc3ccccc3s2)c2nonc12` it is > 10 µM (inactive). The figure for `FC(F)(F)c1cccc(NC(=S)Nc2ccc(Cl)cc2Cl)c1` is 6.1 µM (inactive); for `CC1=CC(C)(C)N2C(=O)C3(SCC(=O)N3c3ccc(F)cc3)c3cc(C)cc1c32` (stereo unspecified) it is > 10 µM (inactive). In the case of `CCCCCCNC(=O)CC(c1ccccc1)c1cc(Br)ccc1O` (stereo unspecified), the IC50 is 3.52 µM. To `CCOc1ccc(N(CC(=O)Nc2cccc(Cl)c2)S(=O)(=O)c2c(C)noc2C)cc1` belongs 2.02 µM; to `CCN1C=CC(=C2C(=O)c3ccccc3C2=O)C=C1`, 1.11 µM (inactive); to `Cc1cc(/C=N/n2cnnc2)c(C)n1-c1ccc(OCc2ccccc2F)cc1`, 4.88 µM. The figure for `COc1ccc(C(=O)/C=C/C(=O)N(CC(=O)NC2CCCCC2)Cc2cccs2)c(O)c1` is 9.94 µM (inactive). The figure for `Cc1ccc(-n2ncc(Br)c(Br)c2=O)cc1` is 4.78 µM. With `CC1CCc2c(sc3ncn(CC(=O)N=Nc4c(O)[nH]c5ccccc45)c(=O)c23)C1` (stereo unspecified), the IC50 is 7.42 µM (inactive). To `CC(C)(C)c1ccc(OCCNC(=S)Nc2ccccc2)cc1` belongs > 10 µM (inactive); to `O=C(Nc1ccc(Cl)cc1)Nc1ccc(N2CCCC2)c(S(=O)(=O)Nc2ccccc2Cl)c1`, 5.95 µM (inactive). The figure for `CCOc1ccc(C2C=C(c3ccc(C)cc3)Nc3nnnn32)cc1` (stereo unspecified) is 9.86 µM (inactive); for `O=C1/C(=C/c2ccncc2)SC(=S)N1C1CCS(=O)(=O)C1` (stereo unspecified) it is 9.91 µM (inactive). The figure for `Cc1ccc(NC(=O)O/N=C/c2c(C)nn(C(C)(C)C)c2C)cc1Cl` is less than 0.16 µM; for `Cc1ccc2nc(-c3cc(-c4ccccc4)no3)cn2c1` it is 9.74 µM (inactive). Regarding `CCOc1ccc(-c2n[nH]c(C)c2Oc2ccc(OC)cc2)c(O)c1`, the IC50 was > 10 µM (inactive).

`OCCCNc1nccc(-c2cc(Nc3cccc(Cl)c3)ncn2)n1`: the IC50 was 0.3 µM. The figure for `Cn1c(=O)[nH]c(=O)c2c1nc([N+](=O)[O-])n2Cc1ccccc1` is 4.64 µM. To `CCn1c(C)nc2cc(-c3nc4n(n3)Cc3ccccc3-4)ccc21` belongs < 0.16 µM (inactive). The figure for `CC(C)Cn1c(=O)c2ccccc2n2c(SCC(=O)N3c4ccccc4CC3C)nnc12` (stereo unspecified) is > 10 µM (inactive); for `O=C(OCn1ncc(Br)c(Br)c1=O)c1ccccc1Cl` it is 2.84 µM. As to `COc1ccc(-c2nn(-c3ccccc3)cc2/C=N/NC(=O)c2ccc(Br)o2)cc1`, the IC50 is 9.29 µM (inactive). The figure for `CCOC(=O)c1cc([N+](=O)[O-])c([N+](=O)[O-])cc1NC(C)=O` is 4.24 µM; for `COC(=O)C[C@]1(C(=O)OC)CN(C#N)N(c2ccc(Cl)cc2)C12c1ccccc1-c1ccccc12` it is 2.16 µM; for `Cc1cc(C)cc(NC(=O)/C(C#N)=C/c2cn(CC(=O)NCc3ccco3)c3ccccc23)c1` it is 1.17 µM.

For `Cc1nn(C(C)(C)C)c(C)c1/C=N/OC(=O)Nc1ccc(Cl)cc1`, the half-inhibitory concentration (IC50) is less than 0.16 µM. For `CCN(CC)CCOC(=O)c1ccc(N/C=C(/C#N)c2nc(-c3cccc(OC)c3)cs2)cc1`, the IC50 is 9.3 µM (inactive). To `Cc1nn(-c2ccc(C(F)(F)F)cn2)c(C)c1Oc1ccccc1O` belongs 5.94 µM (inactive); to `CCOC(=O)C1=C(O)/C(=C/c2ccc(CNC(=O)C(=O)Nc3ccc(C)cc3)o2)N=C1C`, > 10 µM (inactive); to `COC(=O)c1ccc2c(c1)C(C)(C)C(/C=C/c1ccccc1O)=[N+]2C`, > 10 µM (inactive). The figure for `Nc1cccc(Nc2nc(OC(C(F)(F)F)C(F)(F)F)nc(OC(C(F)(F)F)C(F)(F)F)n2)c1` is 3.09 µM (inactive). As to `CC(C)COc1ccc(/C(=N/O)c2ccccc2)cc1`, the IC50 is 5.73 µM (inactive). With `COc1ccc2nc(Nc3nc(CSc4nc5ccccc5[nH]4)cc(=O)[nH]3)nc(C)c2c1`, the IC50 was 2.33 µM (inactive).

Regarding `CC1=NNC(=O)/C1=C\c1cn(-c2ccccc2)nc1-c1ccc(F)cc1`, the IC50 is 9.5 µM (inactive). To `CCCC(=O)NC(NC(=S)Nc1ccc(N=Nc2ccccc2)cc1)C(Cl)(Cl)Cl` (stereo unspecified) belongs 7.31 µM. To `CC(C)C[C@H](NC(=O)c1[nH]cnc1C(=O)Nc1ccccc1)C(=O)OC(C)(C)C` belongs 5.95 µM (inactive); to `C=CCc1cccc(/C=N/NC(=O)CCCNc2ccc(C)cc2)c1O`, 9.23 µM (inactive). For the compound `O=[N+]([O-])c1ccc(-c2nc(C(Cl)Cl)c3ccccc3n2)cc1`, the concentration for half-maximal inhibition (IC50) was 0.19 µM. The figure for `CC(C)Oc1ccc(CNC(=O)CC(c2ccccc2)c2cc(Cl)ccc2O)cc1` (stereo unspecified) is 9.59 µM (inactive).

For `CCNC(=O)c1c(NC(=O)c2cc(-c3cc(C)ccc3O)n[nH]2)sc2c1CCCC2`, the IC50 is 9.58 µM (inactive). To `Cc1ccc(S(=O)(=O)CC#CCOC(=O)c2ccc([N+](=O)[O-])cc2)cc1` belongs > 10 µM (inactive); to `Nc1c(N(C(=O)Nc2ccc(Cl)c(Cl)c2)C2CCCC2)c(=O)[nH]c(=O)n1Cc1ccccc1`, > 10 µM (inactive). The figure for `CC(=O)NCc1ccc(C(=O)CCl)s1` is 9.42 µM (inactive).

Consider `O=C(Nc1cccc(Cl)c1Cl)c1cc(S(=O)(=O)NCCc2ccccc2)ccc1F`, for which the IC50 was 9.57 µM (inactive). To `CC(C)(C)C(=O)NC(NC(=S)Nc1sc2c(c1C#N)CCCC2)C(Cl)(Cl)Cl` (stereo unspecified) belongs > 10 µM (inactive); to `CCOc1ccc(C2=C/C(=C/c3cccnc3)C(=O)O2)cc1`, 9.39 µM (inactive).
